The text below walks through data of patent US20250051319A1 (AUGUSTINE THERAPEUTICS, priority 2021, published 2025).

Usually IC50 stands for the concentration that gives 50% inhibition.

Chain of catalytic domain 2 (CD2) of HDAC6 (Q9UBN7 482-800): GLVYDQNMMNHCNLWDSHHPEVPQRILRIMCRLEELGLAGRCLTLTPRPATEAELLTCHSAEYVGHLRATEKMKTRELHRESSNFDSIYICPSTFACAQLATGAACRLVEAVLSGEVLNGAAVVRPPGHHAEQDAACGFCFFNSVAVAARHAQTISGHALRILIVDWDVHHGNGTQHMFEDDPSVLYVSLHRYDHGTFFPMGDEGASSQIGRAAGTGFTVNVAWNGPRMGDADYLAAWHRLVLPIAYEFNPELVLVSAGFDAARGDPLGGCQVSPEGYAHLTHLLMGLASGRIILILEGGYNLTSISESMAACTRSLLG

The experiment addresses catalytic domain 2 (CD2) of HDAC6 (Homo sapiens (Human), UniProt Q9UBN7). Description: Cellular target engagement assay - NanoBRET. The class given is cell-based. The following applies: NanoLuc-HDAC6(CD2) in HEK293T cells, 2 hours, read-out: IC50 (HDAC6(CD2) interaction). As for the experimental part:
NanoBRET target engagement was performed against the catalytic domain 2 (CD2) of HDAC6, with minor modifications of kit manufacturer protocol (Promega). Expression of exogenous NanoLuc-HDAC6(CD2) fusion and in HEK293T was achieved following transient transfection with FuGENE HD Transfection Reagent (Promega). The intracellular target engagement assay on HDAC6(CD2) was performed in a 384-well plate format with 8,000 cells per well and a tracer concentration of 0.125 μM or 0.600 μM for HDAC6(CD2). Compounds (dissolved in 100% DMSO) or DMSO (vehicle) were added either manually by diluting them in culture medium at 8× final assay concentration and then adding 5 μL to assay plate or in an automated way by adding […] compound to 5 μL OptiMEM without phenol red (Gibco) using the Echo650 (Labcyte). Tracer solution was added to the cells before seeding 35 μL cell/tracer mixture in the assay plate. The final reaction volume was 40 μL, final DMSO concentration was 1.4% (manual compound addition) or 1.25% (automated compound addition). Assay plates were incubated at 37° C. in a humidified atmosphere containing 5% C02 for 2 hours. The NanoBRET Nano-glo Substrate/Inhibitor was prepared by diluting NanoBRET Nano-Glo Substrate (1:332) and Extracellular Inhibitor (1:1000) in assay medium (Promega). […] BRET ratios were calculated from acceptor/donor signal ratio (mBRET=acceptor/donor*1000) and normalized for each plate. Percentage inhibition was calculated by setting the mBRET obtained with cells without tracer to 100%, while the mBRET obtained with uninhibited cells with tracer was set to 0%. IC50-values were calculated from the percentage inhibition with the log(inhibitor) vs. response—Variable slope (four parameters) nonlinear regression in GraphPad Prism software.
(In general: BRET reads energy transfer from a luciferase to a nearby fluorophore.)
In the case of `Cn1ncc2c(SCC(=O)c3ccc(CNC(=O)C(C)(C)C)s3)ncnc21` [Compound 102, N-((5-(2-((1-methyl-1H-pyrazolo[3,4-d]pyrimidin-4-yl)thio)acetyl)thiophen-2-yl)methyl)pivalamide], the IC50 lay in the range of 100 to 500 nM.
As for `CC(=O)NCCc1ccc(C(=O)CSc2nc3nc(C)ccc3o2)s1` [Compound 104, N-(2-(5-(2-((5-methyloxazolo[4,5-b]pyridin-2-yl)thio)acetyl)thiophen-2-yl)ethyl)acetamide], the IC50 was in the range of 100 to 500 nM.
The value for `O=C(CO)NCc1ccc(C(=O)CSc2nc3cc(C(F)(F)F)ccc3o2)s1` [Compound 105, 2-hydroxy-N-((5-(2-((5-(trifluoromethyl)benzo[d]oxazol-2-yl)thio)acetyl)thiophen-2-yl)methyl)acetamide] was 1000 to 10000 nM; that for `Cc1nc(SCC(=O)c2ccc(CNC(=O)CO)s2)c2cc(C3CC3)ccc2n1` [Compound 106, N-((5-(2-((6-cyclopropyl-2-methylquinazolin-4-yl)thio)acetyl)thiophen-2-yl)methyl)-2-hydroxyacetamide] was not above 100 nM; that for `Cc1cc2nc(C(F)(F)F)nc(SCC(=O)c3ccc(CNC(=O)CO)s3)n2n1` [Compound 107, 2-hydroxy-N-((5-(2-((7-methyl-2-(trifluoromethyl)pyrazolo[1,5-a][1,3,5]triazin-4-yl)thio)acetyl)thiophen-2-yl)methyl)acetamide] was 100 to 500 nM.
On to `Cc1nc(SCC(=O)c2ccc(CNC(=O)C3CC3(F)F)s2)c2cccnc2n1` (centres unmarked) [Compound 110, 2,2-difluoro-N-((5-(2-((2-methylpyrido[2,3-d]pyrimidin-4-yl)thio)acetyl)thiophen-2-yl)methyl)cyclopropane-1-carboxamide], for which the 50% inhibitory concentration (IC50) is 100 to 500 nM.
On to `Cn1cc2c(SCC(=O)c3ccc(CNC(=O)C4CC4(F)F)s3)nc(C(F)(F)F)nc2n1` (centres unmarked) [Compound 111, 2,2-difluoro-N-((5-(2-((2-methyl-6-(trifluoromethyl)-2H-pyrazolo[3,4-d]pyrimidin-4-yl)thio)acetyl)thiophen-2-yl)methyl)cyclopropane-1-carboxamide], for which the IC50 lay within 100 to 500 nM.
The value for `O=C(CO)NCc1ccc(C(=O)CSc2nc(C(F)(F)F)nc3cc(C4CC4)nn23)s1` [Compound 112, N-((5-(2-((7-cyclopropyl-2-(trifluoromethyl)pyrazolo[1,5-a][1,3,5]triazin-4-yl)thio)acetyl)thiophen-2-yl)methyl)-2-hydroxyacetamide] was not above 100 nM; that for `Cc1nc(SCC(=O)c2ccc(CNC(=O)C3CC3(F)F)s2)c2cc(OC(F)(F)F)ccc2n1` (centres unmarked) [Compound 120, 2,2-difluoro-N-((5-(2-((2-methyl-6-(trifluoromethoxy)quinazolin-4-yl)thio)acetyl)thiophen-2-yl)methyl)cyclopropane-1-carboxamide] was 100 to 500 nM.
Take `COc1cc2c(SCC(=O)c3ccc(CNC(=O)CO)s3)nc(C)nc2cn1` [Compound 121, 2-hydroxy-N-((5-(2-((6-methoxy-2-methylpyrido[3,4-d]pyrimidin-4-yl)thio)acetyl)thiophen-2-yl)methyl)acetamide]: the IC50 was not above 100 nM.
With `O=C(CSc1nc(C(F)(F)F)nc2ncccc12)c1ccc(CNS(=O)(=O)C2CC2)s1` [Compound 122, N-((5-(2-((2-(trifluoromethyl)pyrido[2,3-d]pyrimidin-4-yl)thio)acetyl)thiophen-2-yl)methyl)cyclopropanesulfonamide], the 50% inhibitory concentration (IC50) is not above 100 nM.
Take `O=C(CSc1nc(C(F)(F)F)nc2ncccc12)c1ccc(CNS(=O)(=O)CC(F)(F)F)s1` [Compound 123, 2,2,2-trifluoro-N-((5-(2-((2-(trifluoromethyl)pyrido[2,3-d]pyrimidin-4-yl)thio)acetyl)thiophen-2-yl)methyl)ethane-1-sulfonamide]: the concentration for half-maximal inhibition (IC50) was not above 100 nM.
The value for `CCS(=O)(=O)NCc1ccc(C(=O)CSc2nc(C(F)(F)F)nc3ncccc23)s1` [Compound 127, N-((5-(2-((2-(trifluoromethyl)pyrido[2,3-d]pyrimidin-4-yl)thio)acetyl)thiophen-2-yl)methyl)ethanesulfonamide] was not above 100 nM; that for `CN(Cc1ccc(C(=O)CSc2nc(C(F)(F)F)nc3ncccc23)s1)C(=O)CO` [Compound 131, 2-hydroxy-N-methyl-N-((5-(2-((2-(trifluoromethyl)pyrido[2,3-d]pyrimidin-4-yl)thio)acetyl)thiophen-2-yl)methyl)acetamide] was not above 100 nM.
`COc1ccc2nc(C(F)(F)F)nc(SCC(=O)c3ccc(CNC(=O)C(C)(C)O)s3)c2c1` [Compound 134, 2-hydroxy-N-((5-(2-((6-methoxy-2-(trifluoromethyl)quinazolin-4-yl)thio)acetyl)thiophen-2-yl)methyl)-2-methylpropanamide]: the IC50 is 100 to 500 nM.
As for `CCn1ncc2c(SCC(=O)c3ccc(CNC(=O)CO)s3)nc(C(F)(F)F)nc21` [Compound 136, N-((5-(2-((1-ethyl-6-(trifluoromethyl)-1H-pyrazolo[3,4-d]pyrimidin-4-yl)thio)acetyl)thiophen-2-yl)methyl)-2-hydroxyacetamide], the 50% inhibitory concentration (IC50) was not above 100 nM.
As for `COc1ccc2nc(C(F)F)nc(SCC(=O)c3ccc(CNC(=O)CO)s3)c2c1` [Compound 139, N-((5-(2-((2-(difluoromethyl)-6-methoxyquinazolin-4-yl)thio)acetyl)thiophen-2-yl)methyl)-2-hydroxyacetamide], the IC50 is 100 to 500 nM.
With `COc1cccc2nc(C)nc(SCC(=O)c3ccc(CNC(=O)CO)s3)c12` [Compound 143, 2-hydroxy-N-((5-(2-((5-methoxy-2-methylquinazolin-4-yl)thio)acetyl)thiophen-2-yl)methyl)acetamide] the figure was 100 to 500 nM.
Turning to `CCOc1ccc2nc(C)nc(SCC(=O)c3ccc(CNC(=O)CO)s3)c2c1` [Compound 144, N-((5-(2-((6-ethoxy-2-methylquinazolin-4-yl)thio)acetyl)thiophen-2-yl)methyl)-2-hydroxyacetamide], the half-inhibitory concentration (IC50) is not above 100 nM.
Regarding `CCOc1cc2c(SCC(=O)c3ccc(CNC(=O)CO)s3)nc(C)nc2cn1` [Compound 145, N-((5-(2-((6-ethoxy-2-methylpyrido[3,4-d]pyrimidin-4-yl)thio)acetyl)thiophen-2-yl)methyl)-2-hydroxyacetamide], the 50% inhibitory concentration (IC50) was not above 100 nM.
Consider `Cc1nc(SCC(=O)c2ccc(CNC(=O)CO)s2)c2c(F)c(Cl)ccc2n1` [Compound 146, N-((5-(2-((6-chloro-5-fluoro-2-methylquinazolin-4-yl)thio)acetyl)thiophen-2-yl)methyl)-2-hydroxyacetamide], for which the IC50 is not above 100 nM.
On to `Cc1nc(SCC(=O)c2ccc(CNC(=O)CO)s2)c2cc(N(C)C)ncc2n1` [Compound 149, N-((5-(2-((6-(dimethylamino)-2-methylpyrido[3,4-d]pyrimidin-4-yl)thio)acetyl)thiophen-2-yl)methyl)-2-hydroxyacetamide], for which the concentration for half-maximal inhibition (IC50) was not above 100 nM.
With `Cc1nc(SCC(=O)c2ccc(CNC(=O)CO)s2)c2cc(C(F)(F)F)cc(N(C)C)c2n1` [Compound 150, N-((5-(2-((8-(dimethylamino)-2-methyl-6-(trifluoromethyl)quinazolin-4-yl)thio)acetyl)thiophen-2-yl)methyl)-2-hydroxyacetamide] the figure was not above 100 nM; with `CNc1cc(C(F)(F)F)cc2c(SCC(=O)c3ccc(CNC(=O)CO)s3)nc(C)nc12` [Compound 151, 2-hydroxy-N-((5-(2-((2-methyl-8-(methylamino)-6-(trifluoromethyl)quinazolin-4-yl)thio)acetyl)thiophen-2-yl)methyl)acetamide], 100 to 500 nM.
In the case of `COc1cnc2nc(C)nc(SCC(=O)c3ccc(CN(C)C(=O)CO)s3)c2c1` [Compound 162, 2-hydroxy-N-((5-(2-((6-methoxy-2-methylpyrido[2,3-d]pyrimidin-4-yl)thio)acetyl)thiophen-2-yl)methyl)-N-methylacetamide], the half-inhibitory concentration (IC50) was 100 to 500 nM.
In the case of `COc1ccc2nc(C)nc(SCC(=O)c3ccc(CNC(=O)C4CCCO4)s3)c2c1` (centres unmarked) [Compound 171, N-((5-(2-((6-methoxy-2-methylquinazolin-4-yl)thio)acetyl)thiophen-2-yl)methyl)tetrahydrofuran-2-carboxamide], the IC50 lay within 100 to 500 nM.
For the compound `COc1ccc2nc(C)nc(SCC(=O)c3ccc(CNC(=O)C(F)F)s3)c2c1` [Compound 172, 2,2-difluoro-N-((5-(2-((6-methoxy-2-methylquinazolin-4-yl)thio)acetyl)thiophen-2-yl)methyl)acetamide], the half-maximal inhibitory concentration (IC50) lay within 100 to 500 nM.
With `COc1ccc2nc(C)nc(SCC(=O)c3ccc(CNC(=O)CN)s3)c2c1` [Compound 177, 2-amino-N-((5-(2-((6-methoxy-2-methylquinazolin-4-yl)thio)acetyl)thiophen-2-yl)methyl)acetamide] the figure was 100 to 500 nM; with `COc1ccc2nc(C)nc(SCC(=O)c3ccc(CNC(=O)C4CN(C)C4)s3)c2c1` [Compound 178, N-((5-(2-((6-methoxy-2-methylquinazolin-4-yl)thio)acetyl)thiophen-2-yl)methyl)-1-methylazetidine-3-carboxamide], not above 100 nM.
